Test results reported in ChEMBL document CHEMBL1152205, “Dihydropyrazolopyrimidine inhibitors of K(V)1.5 (I(Kur))” (Bioorg Med Chem Lett, 2008).

How the values were obtained:
[1] = target: T1, Potassium voltage-gated channel subfamily A member 5 (Homo sapiens, UniProt P22460); assay: Inhibition of human Kv1.5 channel expressed in Xenopus oocytes at 3 uM by EP voltage clamp technique; type: cell-based; conditions: Oocyte
[2] = target: T1, Potassium voltage-gated channel subfamily A member 5; assay: Inhibition of human Kv1.5 channel expressed in mouse L929 cells at 1 uM by EP voltage clamp technique; type: cell-based
[3] = target: T1, Potassium voltage-gated channel subfamily A member 5; assay: Inhibition of human Kv1.5 channel expressed in mouse L929 cells by EP voltage clamp technique; type: cell-based
[4] = target: T1, Potassium voltage-gated channel subfamily A member 5; assay: Inhibition of human Kv1.5 channel expressed in Xenopus oocytes at 10 uM by EP voltage clamp technique; type: cell-based; conditions: Oocyte
[5] = Inhibition of L-type calcium channel expressed in HEK293 cells; type: cell-based
[6] = Inhibition of L-type calcium channel ICa at 10 uM
Homo sapiens = species: Homo sapiens; assay: Selectivity of human Kv1.5 channel over human ERG
[7] = Selectivity of human Kv1.5 channel over L-type calcium channel ICa
[8] = Selectivity of human Kv1.5 channel over potassium channel IK1
[9] = Inhibition of potassium channel IK1 at 10 uM
[10] = Inhibition of sodium channel INa at 10 uM by patch clamp technique
hERG (KCNH2) = hERG (KCNH2) (Homo sapiens, UniProt Q12809); assay: Inhibition of human ERG at 10 uM
hERG (KCNH2), sequence (Q12809 whole entry): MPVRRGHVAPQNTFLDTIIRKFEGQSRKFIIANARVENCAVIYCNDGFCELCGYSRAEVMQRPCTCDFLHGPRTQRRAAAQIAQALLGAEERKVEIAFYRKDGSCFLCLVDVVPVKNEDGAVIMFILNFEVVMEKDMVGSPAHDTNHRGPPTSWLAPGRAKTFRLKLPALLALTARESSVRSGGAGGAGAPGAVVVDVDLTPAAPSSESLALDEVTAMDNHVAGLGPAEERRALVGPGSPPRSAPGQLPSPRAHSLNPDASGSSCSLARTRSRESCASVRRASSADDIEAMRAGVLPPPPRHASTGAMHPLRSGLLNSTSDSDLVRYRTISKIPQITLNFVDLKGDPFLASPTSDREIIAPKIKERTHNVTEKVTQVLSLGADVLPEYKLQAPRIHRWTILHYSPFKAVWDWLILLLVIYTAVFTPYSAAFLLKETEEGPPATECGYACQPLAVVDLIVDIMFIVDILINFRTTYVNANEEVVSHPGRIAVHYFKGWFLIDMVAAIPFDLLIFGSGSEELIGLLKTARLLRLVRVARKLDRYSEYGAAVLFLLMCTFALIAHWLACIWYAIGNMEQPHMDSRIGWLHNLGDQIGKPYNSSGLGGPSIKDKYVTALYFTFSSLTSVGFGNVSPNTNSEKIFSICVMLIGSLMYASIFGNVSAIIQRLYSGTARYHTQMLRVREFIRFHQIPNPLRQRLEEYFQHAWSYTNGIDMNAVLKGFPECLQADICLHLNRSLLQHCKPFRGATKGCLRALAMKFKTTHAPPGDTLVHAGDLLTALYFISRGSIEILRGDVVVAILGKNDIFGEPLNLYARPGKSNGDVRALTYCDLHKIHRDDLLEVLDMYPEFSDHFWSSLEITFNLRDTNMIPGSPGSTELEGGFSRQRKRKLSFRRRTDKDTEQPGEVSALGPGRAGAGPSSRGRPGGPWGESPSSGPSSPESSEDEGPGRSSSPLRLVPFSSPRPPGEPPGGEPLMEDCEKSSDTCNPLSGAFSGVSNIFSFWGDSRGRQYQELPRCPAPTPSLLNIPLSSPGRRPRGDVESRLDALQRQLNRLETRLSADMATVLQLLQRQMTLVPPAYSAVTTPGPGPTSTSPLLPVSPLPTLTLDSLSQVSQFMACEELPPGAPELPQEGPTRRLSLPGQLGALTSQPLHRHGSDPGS

[11] = Selectivity of human Kv1.5 channel over potassium channel IKs
[12] = Selectivity of human Kv1.5 channel over sodium channel INa
[13] = Inhibition of potassium channel IKs at 10 uM

T1 sequence (P22460 whole entry): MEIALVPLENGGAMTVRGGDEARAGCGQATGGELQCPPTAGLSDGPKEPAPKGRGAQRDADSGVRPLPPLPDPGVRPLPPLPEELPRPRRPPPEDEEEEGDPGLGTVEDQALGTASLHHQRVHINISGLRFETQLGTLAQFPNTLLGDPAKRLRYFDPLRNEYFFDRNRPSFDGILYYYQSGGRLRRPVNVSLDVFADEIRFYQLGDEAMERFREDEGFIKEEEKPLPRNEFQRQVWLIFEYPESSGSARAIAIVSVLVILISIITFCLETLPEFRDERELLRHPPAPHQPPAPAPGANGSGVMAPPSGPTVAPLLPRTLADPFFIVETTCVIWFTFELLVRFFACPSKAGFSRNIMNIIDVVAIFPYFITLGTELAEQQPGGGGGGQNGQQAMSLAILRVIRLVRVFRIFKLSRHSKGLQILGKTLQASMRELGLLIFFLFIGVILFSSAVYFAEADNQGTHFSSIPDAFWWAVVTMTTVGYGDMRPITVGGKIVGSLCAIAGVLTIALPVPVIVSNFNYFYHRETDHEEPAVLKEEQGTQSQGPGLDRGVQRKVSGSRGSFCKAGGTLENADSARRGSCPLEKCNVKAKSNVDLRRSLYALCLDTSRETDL

Compound | inhibition [1] | IC50 [3] | also measured
CC1=C(C(=O)N2CCN(c3ccc(F)cc3)CC2)C(c2ccccc2C)n2nccc2N1 (centres undefined) | 37% |  | inhibition [2]: 48%
CC1=C(C(=O)N2CCN(c3ccc(F)cc3)CC2)C(c2ccccc2Cl)n2nccc2N1 (centres undefined) | 30% |  | 
CC1=C(C(=O)N2CCN(c3ccc(F)cc3)CC2)C(c2ccc3ccccc3n2)n2nccc2N1 (centres undefined) | 29% |  | 
CC1=C(C(=O)N2CCN(c3ccc(F)cc3)CC2)C(c2cccc([N+](=O)[O-])c2)n2nccc2N1 (centres undefined) | 15% |  | 
CC1=C(C(=O)N2CCN(c3ccccc3)CC2)C(c2ccc(Cl)c(Cl)c2)n2nccc2N1 (centres undefined) |  | 85 nM | inhibition [4]: 82%
CC1=C(C(=O)N2CCN(c3ccc(F)cc3)CC2)C(c2ccc3ccccc3c2)n2nccc2N1 (centres undefined) | 39% | 650 nM | 
CC1=C(C(=O)N2CCC(c3ccccc3)CC2)C(c2ccc(Cl)c(Cl)c2)n2nccc2N1 (centres undefined) | 59% | 159 nM | 
CC1=C(C(=O)N2CCN(c3ccc(F)cc3)CC2)C(c2ccc(Cl)c(Cl)c2)n2nccc2N1 (centres undefined) | 65% | 120 nM | 
CC1=C(C(=O)N2CCN(c3ccc(F)cc3)CC2)C(c2ccc([N+](=O)[O-])cc2)n2nccc2N1 (centres undefined) | 24% |  | 
COc1ccc(C2C(C(=O)N3CCN(c4ccc(F)cc4)CC3)=C(C)Nc3ccnn32)cc1OC (centres undefined) | 1% |  | 
CC1=C(C(=O)N2CCN(c3ccc(F)cc3)CC2)C(c2ccccc2[N+](=O)[O-])n2nccc2N1 (centres undefined) | 4% |  | 
CC1=C(C(=O)N2CCN(c3ccc(F)cc3)CC2)C(c2cnc3ccccc3c2)n2nccc2N1 (centres undefined) | 17% |  | 
COc1ccc(C2C(C(=O)N3CCN(c4ccc(F)cc4)CC3)=C(C)Nc3ccnn32)cc1 (centres undefined) | 11% |  | 
CC1=C(C(=O)N2CCN(C3CCCCC3)CC2)C(c2ccc(Cl)c(Cl)c2)n2nccc2N1 (centres undefined) | 17% |  | 
CC1=C(C(=O)N2CCN(c3ccc(F)cc3)CC2)C(c2sccc2C)n2nccc2N1 (centres undefined) | 29% |  | 
CC1=C(C(=O)N2CCN(c3ccc(F)cc3)CC2)C(c2cccc(C)c2)n2nccc2N1 (centres undefined) | 57% | 540 nM | 
CC1=C(C(=O)N2CCN(c3ccc(F)cc3)CC2)C(c2ccc(C)cc2)n2nccc2N1 (centres undefined) | 27% |  | 
CC1=C(C(=O)N2CCCCC2)C(c2ccc(Cl)c(Cl)c2)n2nccc2N1 (centres undefined) | 77% | 90 nM | 
CC1=C(C(=O)N2CCN(c3ccc(F)cc3)CC2)C(c2cc(Cl)ccc2Cl)n2nccc2N1 (centres undefined) | 41% | 820 nM | 
CC1=C(C(=O)N2CCN(c3ccc(F)cc3)CC2)C(c2cc(C)cc(C)c2)n2nccc2N1 (centres undefined) | 58% | 420 nM | 
CC1=C(C(=O)N2CCCC2)C(c2ccc(Cl)c(Cl)c2)n2nccc2N1 (centres undefined) | 67% | 660 nM | 
CC1=C(C(=O)N2CCN(c3ccc(F)cc3)CC2)C(c2cccc3c2OCO3)n2nccc2N1 (centres undefined) | 18% |  | 

Compound | inhibition [1] | IC50 [3] | also measured
Cc1nc2ccnn2c(-c2cccc(Cl)c2Cl)c1C(=O)N1CCN(c2ccc(F)cc2)CC1 | 17% |  | 
CC1=C(C(=O)N2CCN(c3ccc(F)cc3)CC2)C(c2sc3ccccc3c2C)n2nccc2N1 (centres undefined) | 56% | 200 nM | 
CC1=C(C(=O)N2CCC2)C(c2ccc(Cl)c(Cl)c2)n2nccc2N1 (centres undefined) | 52% | 970 nM | 
CC1=C(C(=O)N2CCN(c3ccc(F)cc3)CC2)C(c2ccc(Cl)s2)n2nccc2N1 (centres undefined) | 51% | 230 nM | 
CC1=C(C(=O)N2CCN(c3ccc(F)cc3)CC2)C(c2cc(Cl)cc(Cl)c2)n2nccc2N1 (centres undefined) | 62% | 140 nM | 
CCCCNC(=O)C1=C(C)Nc2ccnn2C1c1ccc(Cl)c(Cl)c1 (centres undefined) | 56% | 440 nM | 
Cc1nc2ccnn2c(-c2ccc(Cl)c(Cl)c2)c1C(=O)N1CCCCC1 | 17% |  | 
CC1=C(C(=O)N2CCN(c3ccc(F)cc3)CC2)C(c2ccc(C#N)cc2)n2nccc2N1 (centres undefined) | 14% |  | 
CCCCN(CCCC)C(=O)C1=C(C)Nc2ccnn2C1c1ccc(Cl)c(Cl)c1 (centres undefined) | 45% | 310 nM | 
CC1=C(C(=O)N2CCN(c3ccc(F)cc3)CC2)C(c2cccnc2)n2nccc2N1 (centres undefined) | 3% |  | 
CC1=C(C(=O)NCc2ccccc2)C(c2ccc(Cl)c(Cl)c2)n2nccc2N1 (centres undefined) | 62% | 160 nM | 
CC1=C(C(=O)N2CCN(c3ccc(F)cc3)CC2)C(c2cc3ccccc3o2)n2nccc2N1 (centres undefined) | 33% | 160 nM | 
CC1=C(C(=O)NCCc2ccccc2)C(c2ccc(Cl)c(Cl)c2)n2nccc2N1 (centres undefined) |  | 100 nM | inhibition [4]: 84%
CC1=C(C(=O)Nc2cccnc2)C(c2ccc(Cl)c(Cl)c2)n2nccc2N1 (centres undefined) |  |  | inhibition [4]: 9%
CC1=C(C(=O)N2CCN(c3ccc(F)cc3)CC2)C(c2ccc(C)c(C)c2)n2nccc2N1 (centres undefined) | 34% | 750 nM | 
CC1=C(C(=O)N2CCN(c3ccc(F)cc3)CC2)[C@H](c2ccc(Cl)c(Cl)c2)n2nccc2N1 | 19% |  | 
CC1=C(C(=O)N2CCN(c3ccc(F)cc3)CC2)C(c2cccc(Cl)c2)n2nccc2N1 (centres undefined) | 68% | 190 nM | 
CC1=C(C(=O)N2CCN(c3ccc(F)cc3)CC2)[C@@H](c2cccc(Cl)c2Cl)n2nccc2N1 | 67% | 160 nM | inhibition [6]: 55%; fold change (FC) (Homo sapiens): > 50; fold change (FC) [7]: > 50; fold change (FC) [8]: > 50; inhibition [9]: 1%; inhibition [10]: 14%; inhibition at 10 µM (hERG (KCNH2)): 41%; fold change (FC) [11]: > 50; fold change (FC) [12]: > 50; inhibition [13]: 7%
CC1=C(C(=O)N2CCN(c3ccc(F)cc3)CC2)[C@@H](c2ccc(Cl)c(Cl)c2)n2nccc2N1 | 72% | 70 nM | inhibition [6]: 59%; fold change (FC) (Homo sapiens): > 50; fold change (FC) [7]: > 50; fold change (FC) [8]: > 50; inhibition [9]: 3%; inhibition [10]: 42%; inhibition at 10 µM (hERG (KCNH2)): 69%; fold change (FC) [11]: > 50; fold change (FC) [12]: > 50; inhibition [13]: 21%
COC(=O)C1=C(C)NC(C)=C(C(=O)OC)C1c1ccccc1[N+](=O)[O-] [NIFEDIPINE] |  | 6100 nM | IC50 [5]: 60 nM
COC[C@@H]1CCCN1C(=O)C1=C(C)Nc2ccnn2C1c1ccc(Cl)c(Cl)c1 (some centres undefined) | 88% | 200 nM | 

Continued, in another order:

inhibition [1] | IC50 [3] | Compound | also measured
39% |  | COC[C@H]1CCCN1C(=O)C1=C(C)Nc2ccnn2C1c1ccc(Cl)c(Cl)c1 (some centres undefined) | 
17% |  | CC1=C(C(=O)N2CCOCC2)C(c2ccc(Cl)c(Cl)c2)n2nccc2N1 (centres undefined) | 
69% | 580 nM | CCCCCN(CCCCC)C(=O)C1=C(C)Nc2ccnn2C1c1ccc(Cl)c(Cl)c1 (centres undefined) | 
5% |  | CC1=C(C(=O)N2CCN(C)CC2)C(c2ccc(Cl)c(Cl)c2)n2nccc2N1 (centres undefined) | 
50% | 280 nM | CC1=C(C(=O)N2CCN(c3ccc(F)cc3)CC2)C(c2ccc(Cl)cc2Cl)n2nccc2N1 (centres undefined) | 
48% | 590 nM | CCCCCNC(=O)C1=C(C)Nc2ccnn2C1c1ccc(Cl)c(Cl)c1 (centres undefined) | 
72% | 70 nM | CCCN(CCC)C(=O)C1=C(C)Nc2ccnn2C1c1ccc(Cl)c(Cl)c1 (centres undefined) | 
24% |  | CC1=C(C(=O)N2CCN(c3ccc(F)cc3)CC2)C(c2ccccc2)n2nccc2N1 (centres undefined) | 
72% | 160 nM | CC1=C(C(=O)N2CCN(c3ccc(F)cc3)CC2)C(c2cccc(Cl)c2Cl)n2nccc2N1 (centres undefined) | 
3% |  | CC1=C(C(=O)N2CCN(c3ccc(F)cc3)CC2)C(c2ccccn2)n2nccc2N1 (centres undefined) | 
2% |  | COc1ccccc1C1C(C(=O)N2CCN(c3ccc(F)cc3)CC2)=C(C)Nc2ccnn21 (centres undefined) | 
11% |  | CC1=C(C(=O)N2CCN(c3ccc(F)cc3)CC2)C(c2cccc(C#N)c2)n2nccc2N1 (centres undefined) | 
26% |  | CC1=C(C(=O)N2CCN(c3ccc(F)cc3)CC2)C(c2ccc3c(c2)OCO3)n2nccc2N1 (centres undefined) | 
 | 170 nM | CC1=C(C(=O)Nc2ccccc2)C(c2ccc(Cl)c(Cl)c2)n2nccc2N1 (centres undefined) | inhibition [4]: 83%
7% |  | CC1=C(C(=O)N2CCN(c3ccc(F)cc3)CC2)C(c2ccc(C)o2)n2nccc2N1 (centres undefined) | 
 | 490 nM | CCCNC(=O)C1=C(C)Nc2ccnn2C1c1ccc(Cl)c(Cl)c1 (centres undefined) | 
2% |  | CC1=C(C(=O)N2CCN(c3ccc(F)cc3)CC2)[C@H](c2cccc(Cl)c2Cl)n2nccc2N1 | 
7% |  | CC1=C(C(=O)N2CCN(c3ccc(F)cc3)CC2)C(c2cccs2)n2nccc2N1 (centres undefined) | 
42% | 440 nM | CC1=C(C(=O)N2CCN(c3ccc(F)cc3)CC2)C(c2ccc(Cl)cc2)n2nccc2N1 (centres undefined) | 
7% |  | COc1cccc(C2C(C(=O)N3CCN(c4ccc(F)cc4)CC3)=C(C)Nc3ccnn32)c1OC (centres undefined) | 
1% |  | CC1=C(C(=O)N2CCN(c3ccc(F)cc3)CC2)C(c2ccco2)n2nccc2N1 (centres undefined) | 
1% |  | CC1=C(C(=O)N2CCN(c3ccc(F)cc3)CC2)C(c2ccc(C)s2)n2nccc2N1 (centres undefined) | 
61% | 440 nM | CCN(CC)C(=O)C1=C(C)Nc2ccnn2C1c1ccc(Cl)c(Cl)c1 (centres undefined) | 
30% |  | COc1cccc(C2C(C(=O)N3CCN(c4ccc(F)cc4)CC3)=C(C)Nc3ccnn32)c1 (centres undefined) | 
 | 1100 nM | CCOC(=O)C1=C(C)Nc2ccnn2C1c1cccc(Cl)c1Cl (centres undefined) | IC50 [5]: 9380 nM
90% | 190 nM | CC1=C(C(=O)N2CCCCCC2)C(c2ccc(Cl)c(Cl)c2)n2nccc2N1 (centres undefined) | 
